“And” between values parts separate entries of the source, which are not always exact repeats. Equal values may be shown once.
System: entire human genome (gene expression profile)
Assay: Agilent whole human genome array, skin fibroblasts AG07999, antioxidant with or without UV
Assay type: cell-based
Experimental: Cell cultures: A human skin fibroblast cell culture was obtained through the Coriell Cell Repository from the National Institute on Aging Cell Repository. […] Culture media: Cells were grown in Minimal Essential Medium supplemented with 10% fetal bovine serum, 2 mM L-glutamine, 2 mM Glutamax I. […] All cultures were incubated at 37° C. with 5% CO2 in a humidified chamber. […] On Day 5 after 24 hours of exposure to test conditions, the cells were isolated and the RNA isolated using the RT^2q PCR-grade RNA isolation kit (Superarray Bioscience Corporation). […] Analysis of Agilent Whole Human Genome Arrays: RNA taken from both samples was sent to Cogenics, Inc. Morrisville, N.C. Cogenics, Inc. is a leading, state-of-the-art, microarray service provider that facilitates and accelerates transcriptome profiling and gene discovery processes for industrial and academic researchers. Cogenics' procedure for processing samples is as follows: RNA samples are received and analyzed by Cogenics, Inc. using rigorous standardized procedures that are designed to ensure quality and chain of custody. Each sample undergoes a thorough quality analysis using an Agilent Bioanalyzer microfluidics device, and is precisely quantified using a Nanodrop-1000 spectro-photometer. When the Agilent Oligonucleotide Microarray Platform is utilized, samples are fluorescently labeled using the Agilent Low-Input Linear Amplification Kit. Upon completion of this process, the labeled cRNA products are assessed using the same processes described above. These labeled samples are then fragmented and hybridized to oligonucleotide microarrays. The microarrays are washed and then scanned using an Agilent DNA Microarray Scanner with Sure Scan technology. Data is extracted from the images produced by the scanner using Agilent's Feature Extraction software. At this point, the scanned image is visually inspected for defects, and the extracted data is statistically analyzed to ensure quality of the assay. Extracted data and images can be loaded into Rosetta Resolver Gene Expression Data Analysis System for in-depth analysis, both from a quality standpoint, as well as to develop biological understanding. […] A table was generated and provided as a tab-delimited text file. This file will contain the log ratio, fold-change, log ratio p-value, etc. for every transcript measured by the microarray. Using Rosetta Resolver, a single ratio comparison was compiled based on the results of the two fluorophore reversal hybridization performed in the context of this project. The ratios were calculated such that the Tx sample was in the numerator and the UnTx sample was in the denominator. A table was generated, saved as tab-delimited text files, and is provided on the DVD that accompanied this report in the “Objective—1” subdirectory or the “Data_Analysis” directory. These files contain the log ratio, fold-change, log ratio p-value, etc. for every transcript present on the microarray. […] A table for will be generated and provided as a tab-delimited text file. The file will contain the log ratio, fold-change, log ratio p-value, etc. for only the differentially expressed transcripts within the context of the comparison. […] These criteria were applied to the comparison made in Objective 1. A table was generated, saved as tab-delimited text files, and is provided on the DVD that accompanied this report in the “Objective—1” subdirectory or the “Data_Analysis” directory. […] Cell cultures: A human skin fibroblast cell culture (or cultures) will be obtained through the Coriell Cell Repository from the National Institute on Aging Cell Repository. […] Culture media: Cells will be grown in Minimal Essential Medium supplemented with 10% fetal bovine serum, 2 mM L-glutamine, 2 mM Glutamax I.

COC1=C(OC)C(=O)C(CCCCCCCCCCO)=C(C)C1=O [Idebenone, 6-(10-hydroxydecyl)-2,3-dimethoxy-5-methyl-1,4-benzoquin-one]
1.4: BARD1 Expression (Alone) | CYP19A1 Expression (Alone) | ERCC6 Expression (Alone) | HSPA1A Expression (Alone) | MCM2 Expression (Alone) | MKI67 Expression (Alone) | MYBL2 Expression (Alone) | SNCG Expression (Alone)
1.3: BAX Expression (Alone) | CIDEA Expression (Alone) | NUDT1 Expression (Alone) | OAS1 Expression (Alone) | PARP2 Expression (Alone) | PLK1 Expression (Alone)
−2.0: SDS Expression (Alone)
−1.1: APEX2 Expression (Alone) | ATXN3 Expression (Alone) | CCNH Expression (Alone) | CRY2 Expression (Alone) | E2F2 Expression (Alone) | ERCC4 Expression (Alone) | ERCC8 Expression (Alone) | FANCF Expression (Alone) | GADD45A Expression (Alone) | GAPDH Expression (Alone) | GTSE1 Expression (Alone) | HK1 Expression (Alone) | LTA Expression (Alone) | MMP2 Expression (Alone) | MMP14 Expression (Alone) | NF1 Expression (Alone) | PITRM1 Expression (Alone) | PKM2 Expression (Alone) | PLAT Expression (Alone) | PLAUR Expression (Alone) | RRAS Expression (Alone) | S100A11 Expression (Alone)
2.4: CSF2 Expression (Alone)
2.3: MMP3 Expression (Alone)
1.3 and 1.2: PARP1 Expression (Alone)
1.2: APEX1 Expression (Alone) | ATM Expression (Alone) | ATR Expression (Alone) | CDKN1A Expression (Alone) | ERCC1 Expression (Alone) | FPGS Expression (Alone) | MRE11A Expression (Alone) | NADSYN1 expression (Alone) | NEIL2 Expression (Alone) | OAS2 Expression (Alone) | PTGS1 Expression (Alone) | RPS9 Expression (Alone) | SMAD1 Expression (Alone)
1.5: DUT Expression (Alone) | NEIL1 Expression (Alone)
1.0: ABL1 Expression (Alone) | AK3 Expression (Alone) | ALDOA Expression (Alone) | APOE Expression (Alone) | ATIC Expression (Alone) | ATRX Expression (Alone) | BCL2 Expression (Alone) | BLM Expression (Alone) | BRIP1 Expression (Alone) | BTG2 Expression (Alone) | CASP2 Expression (Alone) | CDK7 Expression (Alone) | CDKN2A Expression (Alone) | CHUK Expression (Alone) | CIB1 Expression (Alone) | CLK1 Expression (Alone) | CRY1 Expression (Alone) | CTPS Expression (Alone) | DCLRE1C Expression (Alone) | DDB2 Expression (Alone) | DDC Expression (Alone) | DHFR Expression (Alone) | DKC1 Expression (Alone) | ERCC2 Expression (Alone) | ERCC5 Expression (Alone) | ERH Expression (Alone) | FANCA Expression (Alone) | GADD45G Expression (Alone) | GDA Expression (Alone) | GH1 Expression (Alone) | GMPR Expression (Alone) | GTF2H3 Expression (Alone) | HLA-DRA Expression (Alone) | HSPA1L Expression (Alone) | HUS1 Expression (Alone) | IGF1 Expression (Alone) | IGF2 Expression (Alone) | JUN Expression (Alone) | LIG1 Expression (Alone) | LIG3 Expression (Alone) | LIG4 Expression (Alone) | MAP2K6 Expression (Alone) | MAPK14 Expression (Alone) | MBD4 Expression (Alone) | MDH1 Expression (Alone) | MLH1 Expression (Alone) | MLH3 Expression (Alone) | MMP10 Expression (Alone) | MMP13 Expression (Alone) | MNAT1 Expression (Alone) | MPG Expression (Alone) | MSH2 Expression (Alone) | MSH4 Expression (Alone) | MSH6 Expression (Alone) | NCK1 Expression (Alone) | NFKBIA Expression (Alone) | NGFR Expression (Alone) | NOS2A Expression (Alone) | OAS3 Expression (Alone) | PDZK1IP1 Expression (Alone) | POLA2 Expression (Alone) | PSMC6 Expression (Alone) | PSMD12 Expression (Alone) | RPL3 Expression (Alone) | RPS10 Expression (Alone) | S100A8 Expression (Alone) | SPRR1B Expression (Alone)
1.1 and 1.0: ACTB Expression (Alone) | SOD2 Expression (Alone)
1.2 and 1.1: HPRT1 Expression (Alone)
−1.7: S100A10 Expression (Alone)
1.2 and 1.0: SHC1 Expression (Alone)
1.9: DDB1 Expression (Alone)
−1.0: ACE Expression (Alone) | ANKRD17 Expression (Alone) | B2M Expression (Alone) | BRCA1 Expression (Alone) | CASP9 Expression (Alone) | CREBBP Expression (Alone) | ERCC3 Expression (Alone) | FANCC Expression (Alone) | FEN1 Expression (Alone) | IL1A Expression (Alone) | IL6 Expression (Alone) | MAPK9 Expression (Alone) | MAPK12 Expression (Alone) | MAX Expression (Alone) | MMP15 Expression (Alone) | MSRA Expression (Alone) | MUTYH Expression (Alone) | MYCBP Expression (Alone) | NEIL3 Expression (Alone) | NUDT2 Expression (Alone) | PAK1 Expression (Alone) | PAPSS1 Expression (Alone) | PAPSS2 Expression (Alone) | PCNA Expression (Alone) | PPARG Expression (Alone) | PSMD1 Expression (Alone) | RAF1 Expression (Alone) | RET Expression (Alone) | RPL13A Expression (Alone) | RRM1 Expression (Alone) | SLK Expression (Alone) | SOD1 Expression (Alone) | SRI Expression (Alone) | STAT5A Expression (Alone)
2.7: S100A7 Expression (Alone)
1.7: MMP12 Expression (Alone)
−1.6: IFI44 expression (Alone) | MMP7 Expression (Alone) | NR1D1 Expression (Alone) | PLAU Expression (Alone)
1.1: ATF2 Expression (Alone) | BRCA2 Expression (Alone) | CETN2 Expression (Alone) | CHEK2 Expression (Alone) | DDIT3 Expression (Alone) | DMC1 Expression (Alone) | DPYS Expression (Alone) | ENTPD4 Expression (Alone) | EXO1 Expression (Alone) | FANCG Expression (Alone) | GTF2H1 Expression (Alone) | HSP90AB1 Expression (Alone) | HTRA1 Expression (Alone) | IGHMBP2 Expression (Alone) | IHPK3 Expression (Alone) | IL10 Expression (Alone) | MMP11 Expression (Alone) | MSH3 Expression (Alone) | MTAP Expression (Alone) | N4BP2 Expression (Alone) | NRG1 Expression (Alone) | NTHL1 Expression (Alone) | PPIE Expression (Alone) | PSMA2 Expression (Alone) | PSMA3 Expression (Alone) | PSMD11 Expression (Alone)
−1.3: GML Expression (Alone) | MAPK8 Expression (Alone) | MGMT Expression (Alone) | MT2A Expression (Alone) | OGG1 Expression (Alone)
−2.9: SERPINB2 Expression (Alone)
−1.2: BPNT1 Expression (Alone) | CIDEB Expression (Alone) | GTF2H2 Expression (Alone) | INPPL1 Expression (Alone) | KRAS Expression (Alone) | NBN Expression (Alone) | NP Expression (Alone) | RORA Expression (Alone) | SIRT1 Expression (Alone) | SPARC Expression (Alone)
1.6: MVK Expression (Alone)
n.s.: fold change of gene expression (sequence name in c0), Idebenone + UVB
−2.7: SPP1 Expression (Alone)
−1.4: GTF2H4 Expression (Alone) | MAPKAPK2 Expression (Alone) | MMP1 Expression (Alone) | SERPINE1 Expression (Alone)
−1.5: CDA Expression (Alone) | CHEK1 Expression (Alone) | E2F1 Expression (Alone) | E2F3 Expression (Alone) | NFKB1 expression (Alone) | PRDX6 Expression (Alone) | RB1 Expression (Alone)
